Experimental data published in article PMC8333062, “Chemical tools for epichaperome-mediated interactome dysfunctions of the central nervous system” (Nature Communications, 2021).
Where “and” joins values, the source holds several entries; their conditions need not be identical. Identical values can stand only once. Like-named read-outs stand apart in the source and are kept apart here.

What was measured:
[1] = target: T1, CYP2B6 (Homo sapiens, UniProt P20813); test: Cytochrome P450 profiling, orphenadrine; assay type: in vitro ADME; conditions: for % PU-HZ151 remaining: Orphenadrine
T1 construct: tissue Life Technologies HMMCPL; host or cells: human liver microsomes
T1 sequence (P20813 1-491): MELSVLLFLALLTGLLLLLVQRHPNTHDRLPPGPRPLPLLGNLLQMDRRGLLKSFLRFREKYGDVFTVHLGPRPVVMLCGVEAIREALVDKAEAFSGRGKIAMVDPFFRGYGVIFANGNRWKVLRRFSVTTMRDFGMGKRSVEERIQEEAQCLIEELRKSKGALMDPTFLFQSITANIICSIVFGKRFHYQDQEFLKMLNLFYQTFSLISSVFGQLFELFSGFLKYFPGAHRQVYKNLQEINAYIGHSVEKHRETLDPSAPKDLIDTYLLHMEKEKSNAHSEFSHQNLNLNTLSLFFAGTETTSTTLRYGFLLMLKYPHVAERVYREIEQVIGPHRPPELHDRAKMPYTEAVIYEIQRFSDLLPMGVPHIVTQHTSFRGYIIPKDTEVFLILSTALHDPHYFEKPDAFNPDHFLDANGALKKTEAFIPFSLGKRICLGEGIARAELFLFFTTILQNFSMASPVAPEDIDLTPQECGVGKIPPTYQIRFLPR
Method: (§1) To identify cytochrome P450 enzymes responsible for PU-HZ151’s metabolism in human liver microsomes the following procedure was followed. Phosphate buffer (100 mM, pH 7.4) was prepared monthly and stored at 4 °C. Frozen stock solutions of human liver microsomes (Life Technologies; Cat# HMMCPL) were used once after thawing and were not refrozen. NADPH stock solution (50 mM) in distilled water was prepared fresh daily. […] The stock solutions of these P450 inhibitors were prepared in DMSO. […] The concentration of the chemical inhibitors used in the assay were furafylline (10 μM), tranylcypromine (2 μM), ketoconazole (1 μM), troleandomycin (20 μM), orphenadrine (50 μM), montelukast (3 μM), sulfaphenazole (10 μM), benzylnirvanol (1 μM), quinidine (1 μM), and 1-aminobenzotriazole (1 mM) for all the P450 enzymes. Timing of the reactions was started following the addition of NADPH/magnesium chloride mix and PU-HZ151. Time-dependent chemical inhibitors (furafylline, troleandomycin, orphenadrine, and 1-aminobenzotriazole) were preincubated with human microsomes in the presence of NADPH and magnesium chloride for 15 min before the addition of PU-HZ151 and timing of reactions was started after addition of PU-HZ151. […] Following brief vortexing and centrifugation, a 200 µL aliquot of the supernatant was transferred to a tube, and 10 µL of haloperidol (1 µg mL^−1) as internal standard was added. Following brief vortexing and centrifugation, 50 µL of supernatant was added to a 96-well plate for subsequent LC-MS/MS analysis. PU-HZ151 was similarly tested as above in the absence of CYP inhibitors for comparative purposes. All samples were assayed in duplicate. […] This was similarly performed for incubations of PU-HZ151 performed in the absence of CYP inhibitor.

[2] = target: T2, CYP2C9 (Homo sapiens, UniProt P11712); test: Cytochrome P450 profiling, sulfaphenazole; assay type: in vitro ADME; conditions: for % PU-HZ151 remaining: Sulfaphenazole
T2 construct: PU-HZ151 (1 µM) was incubated with human liver microsomes (0.5 mg protein mL^−1); tissue Life Technologies HMMCPL; host or cells: human liver microsomes
T2 sequence (P11712 whole entry): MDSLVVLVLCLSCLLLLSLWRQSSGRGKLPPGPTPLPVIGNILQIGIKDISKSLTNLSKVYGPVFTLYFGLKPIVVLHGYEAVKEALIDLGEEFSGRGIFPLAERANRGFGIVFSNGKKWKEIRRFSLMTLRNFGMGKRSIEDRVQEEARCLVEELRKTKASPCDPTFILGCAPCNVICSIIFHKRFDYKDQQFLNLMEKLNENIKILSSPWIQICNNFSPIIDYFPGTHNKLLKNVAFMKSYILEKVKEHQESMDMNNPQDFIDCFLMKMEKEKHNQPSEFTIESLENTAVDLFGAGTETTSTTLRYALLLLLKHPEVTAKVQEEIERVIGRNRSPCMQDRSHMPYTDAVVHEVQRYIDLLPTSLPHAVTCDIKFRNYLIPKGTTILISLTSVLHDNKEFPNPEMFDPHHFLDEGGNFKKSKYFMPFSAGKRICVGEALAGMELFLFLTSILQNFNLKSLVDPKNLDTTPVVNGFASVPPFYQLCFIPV
Method: as §1

[3] = target: T3, 97 kinases (Homo sapiens, UniProt O15111); test: scanEDGE off-target screen; assay type: binding; conditions: read-out: %Ctrl IKK-alpha
T3 construct: purchased Ambit Biosciences (scanEDGE / KINOMEscan) scanEDGE 97 kinase panel; host or cells: T7 phage in E. coli BL21-derived host; remaining kinases in HEK-293 cells
T3 sequence (O15111 whole entry): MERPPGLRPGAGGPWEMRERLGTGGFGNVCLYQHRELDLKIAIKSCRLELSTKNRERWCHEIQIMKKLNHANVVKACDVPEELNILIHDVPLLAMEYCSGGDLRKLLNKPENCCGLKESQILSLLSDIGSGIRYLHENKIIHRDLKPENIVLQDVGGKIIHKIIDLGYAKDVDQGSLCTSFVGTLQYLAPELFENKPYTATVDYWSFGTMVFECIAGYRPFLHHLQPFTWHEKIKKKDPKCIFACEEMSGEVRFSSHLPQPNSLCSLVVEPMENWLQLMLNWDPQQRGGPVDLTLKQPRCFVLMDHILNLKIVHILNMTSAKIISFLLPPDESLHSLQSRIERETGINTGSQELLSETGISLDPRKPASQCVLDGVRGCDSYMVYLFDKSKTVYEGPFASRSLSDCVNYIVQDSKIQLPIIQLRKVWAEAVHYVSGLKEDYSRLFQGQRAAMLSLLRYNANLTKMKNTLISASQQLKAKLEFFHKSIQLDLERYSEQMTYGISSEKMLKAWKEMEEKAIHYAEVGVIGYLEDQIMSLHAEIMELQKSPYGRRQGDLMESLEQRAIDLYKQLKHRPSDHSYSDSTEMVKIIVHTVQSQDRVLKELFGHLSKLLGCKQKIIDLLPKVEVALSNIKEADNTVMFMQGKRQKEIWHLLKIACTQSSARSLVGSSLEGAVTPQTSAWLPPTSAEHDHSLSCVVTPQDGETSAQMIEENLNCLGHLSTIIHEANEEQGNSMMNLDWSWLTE

[4] = target: T4, 97 kinases (Homo sapiens, UniProt P16234); test: scanEDGE off-target screen; assay type: binding; conditions: read-out: %Ctrl PDGFRA
T4 construct: purchased Ambit Biosciences (scanEDGE / KINOMEscan) scanEDGE 97 kinase panel; host or cells: T7 phage in E. coli BL21-derived host; remaining kinases in HEK-293 cells

[5] = target: T5, 97 kinases (Homo sapiens, UniProt P15056); test: scanEDGE off-target screen; assay type: binding; conditions: read-out: %Ctrl BRAF
T5 construct: purchased Ambit Biosciences (scanEDGE / KINOMEscan) scanEDGE 97 kinase panel; host or cells: T7 phage in E. coli BL21-derived host; remaining kinases in HEK-293 cells
T5 sequence (P15056 whole entry): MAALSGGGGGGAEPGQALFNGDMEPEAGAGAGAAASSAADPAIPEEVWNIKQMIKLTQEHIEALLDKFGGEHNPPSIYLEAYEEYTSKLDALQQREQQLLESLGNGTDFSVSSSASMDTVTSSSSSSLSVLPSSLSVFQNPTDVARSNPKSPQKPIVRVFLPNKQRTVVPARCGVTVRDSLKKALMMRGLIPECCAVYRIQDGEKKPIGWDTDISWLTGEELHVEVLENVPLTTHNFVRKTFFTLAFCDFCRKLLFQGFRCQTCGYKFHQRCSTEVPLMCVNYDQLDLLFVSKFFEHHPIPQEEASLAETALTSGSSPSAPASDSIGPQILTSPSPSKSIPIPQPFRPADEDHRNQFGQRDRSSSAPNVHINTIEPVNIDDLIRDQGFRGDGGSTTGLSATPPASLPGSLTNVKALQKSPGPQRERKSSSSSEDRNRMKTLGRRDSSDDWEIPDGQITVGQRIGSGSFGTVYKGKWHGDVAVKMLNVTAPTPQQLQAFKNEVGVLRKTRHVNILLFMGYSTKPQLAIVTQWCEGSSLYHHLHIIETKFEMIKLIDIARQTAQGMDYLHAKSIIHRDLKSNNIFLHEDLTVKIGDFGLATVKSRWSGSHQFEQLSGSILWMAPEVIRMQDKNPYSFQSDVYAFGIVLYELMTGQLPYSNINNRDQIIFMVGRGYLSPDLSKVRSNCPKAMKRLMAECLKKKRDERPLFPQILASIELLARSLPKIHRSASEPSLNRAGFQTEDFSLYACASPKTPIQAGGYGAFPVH

[6] = target: T6, 97 kinases (Homo sapiens, UniProt P51812); test: scanEDGE off-target screen; assay type: binding; conditions: read-out: %Ctrl RSK2(Kin.Dom.1-N-terminal)
T6 construct: purchased Ambit Biosciences (scanEDGE / KINOMEscan) scanEDGE 97 kinase panel; host or cells: T7 phage in E. coli BL21-derived host; remaining kinases in HEK-293 cells
T6 sequence (P51812 whole entry): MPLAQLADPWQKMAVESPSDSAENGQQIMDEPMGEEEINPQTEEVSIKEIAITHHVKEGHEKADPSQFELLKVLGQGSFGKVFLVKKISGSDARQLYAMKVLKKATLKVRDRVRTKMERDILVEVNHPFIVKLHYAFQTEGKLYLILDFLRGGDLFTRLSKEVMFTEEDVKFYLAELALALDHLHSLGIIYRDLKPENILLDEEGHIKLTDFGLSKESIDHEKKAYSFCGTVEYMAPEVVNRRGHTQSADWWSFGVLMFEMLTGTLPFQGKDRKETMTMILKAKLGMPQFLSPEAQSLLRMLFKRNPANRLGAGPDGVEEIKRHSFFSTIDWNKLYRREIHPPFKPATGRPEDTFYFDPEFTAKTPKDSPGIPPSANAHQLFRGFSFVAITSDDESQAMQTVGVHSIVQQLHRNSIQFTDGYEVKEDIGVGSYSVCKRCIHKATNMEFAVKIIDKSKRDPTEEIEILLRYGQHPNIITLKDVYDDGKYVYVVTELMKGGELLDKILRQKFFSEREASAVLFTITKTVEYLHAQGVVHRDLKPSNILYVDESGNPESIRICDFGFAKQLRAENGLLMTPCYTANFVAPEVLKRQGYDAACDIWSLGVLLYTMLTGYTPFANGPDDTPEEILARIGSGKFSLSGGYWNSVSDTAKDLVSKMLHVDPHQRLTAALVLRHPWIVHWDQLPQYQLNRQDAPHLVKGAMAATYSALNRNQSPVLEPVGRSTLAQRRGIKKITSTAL

[7] = target: T7, 97 kinases (Homo sapiens, UniProt P27361); test: scanEDGE off-target screen; assay type: binding; conditions: read-out: %Ctrl ERK1
T7 construct: purchased Ambit Biosciences (scanEDGE / KINOMEscan) scanEDGE 97 kinase panel; host or cells: T7 phage in E. coli BL21-derived host; remaining kinases in HEK-293 cells
T7 sequence (P27361 whole entry): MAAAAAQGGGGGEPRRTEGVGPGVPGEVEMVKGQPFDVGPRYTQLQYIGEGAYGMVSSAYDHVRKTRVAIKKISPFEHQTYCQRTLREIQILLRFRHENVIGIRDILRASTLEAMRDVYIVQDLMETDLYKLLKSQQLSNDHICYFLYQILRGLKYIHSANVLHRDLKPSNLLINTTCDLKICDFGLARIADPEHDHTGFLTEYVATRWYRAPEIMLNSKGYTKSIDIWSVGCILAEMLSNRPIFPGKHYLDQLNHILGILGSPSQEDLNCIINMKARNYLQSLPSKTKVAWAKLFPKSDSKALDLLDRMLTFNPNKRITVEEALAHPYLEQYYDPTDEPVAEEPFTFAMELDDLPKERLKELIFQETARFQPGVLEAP

[8] = target: T8, 97 kinases (Homo sapiens, UniProt P36507); test: scanEDGE off-target screen; assay type: binding; conditions: read-out: %Ctrl MEK2
T8 construct: purchased Ambit Biosciences (scanEDGE / KINOMEscan) scanEDGE 97 kinase panel; host or cells: T7 phage in E. coli BL21-derived host; remaining kinases in HEK-293 cells

[9] = target: T9, 97 kinases (Homo sapiens, UniProt P36888); test: scanEDGE off-target screen; assay type: binding; conditions: read-out: %Ctrl FLT3
T9 construct: purchased Ambit Biosciences (scanEDGE / KINOMEscan) scanEDGE 97 kinase panel; host or cells: T7 phage in E. coli BL21-derived host; remaining kinases in HEK-293 cells
T9 sequence (P36888 27-993): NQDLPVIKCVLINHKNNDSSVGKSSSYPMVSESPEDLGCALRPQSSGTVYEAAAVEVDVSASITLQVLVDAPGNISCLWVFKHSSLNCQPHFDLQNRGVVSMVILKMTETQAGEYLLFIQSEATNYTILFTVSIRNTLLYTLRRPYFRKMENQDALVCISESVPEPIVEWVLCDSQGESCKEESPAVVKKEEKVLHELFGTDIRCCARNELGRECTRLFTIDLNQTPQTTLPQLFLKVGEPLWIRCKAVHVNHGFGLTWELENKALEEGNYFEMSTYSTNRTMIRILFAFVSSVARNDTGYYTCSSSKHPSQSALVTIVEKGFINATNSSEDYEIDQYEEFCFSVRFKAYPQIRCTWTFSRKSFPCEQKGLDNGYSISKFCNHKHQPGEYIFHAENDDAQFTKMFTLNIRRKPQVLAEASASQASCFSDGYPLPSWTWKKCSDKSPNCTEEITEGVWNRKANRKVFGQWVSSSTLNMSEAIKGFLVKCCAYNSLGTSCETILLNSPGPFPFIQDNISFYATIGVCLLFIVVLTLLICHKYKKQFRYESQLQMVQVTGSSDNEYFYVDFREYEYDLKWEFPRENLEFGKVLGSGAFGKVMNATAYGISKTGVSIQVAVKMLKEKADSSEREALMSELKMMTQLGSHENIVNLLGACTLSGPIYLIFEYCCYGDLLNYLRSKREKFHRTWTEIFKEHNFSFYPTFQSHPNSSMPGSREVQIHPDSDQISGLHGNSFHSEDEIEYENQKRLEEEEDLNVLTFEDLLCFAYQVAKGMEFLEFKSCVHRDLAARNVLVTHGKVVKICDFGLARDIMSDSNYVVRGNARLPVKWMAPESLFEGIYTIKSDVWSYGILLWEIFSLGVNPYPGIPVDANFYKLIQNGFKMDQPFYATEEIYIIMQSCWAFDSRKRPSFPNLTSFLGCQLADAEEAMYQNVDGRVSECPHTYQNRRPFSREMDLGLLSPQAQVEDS

[10] = target: T10, 97 kinases (Homo sapiens, UniProt P22607); test: scanEDGE off-target screen; assay type: binding; conditions: read-out: %Ctrl FGFR3
T10 construct: purchased Ambit Biosciences (scanEDGE / KINOMEscan) scanEDGE 97 kinase panel; host or cells: T7 phage in E. coli BL21-derived host; remaining kinases in HEK-293 cells
T10 sequence (P22607 23-806): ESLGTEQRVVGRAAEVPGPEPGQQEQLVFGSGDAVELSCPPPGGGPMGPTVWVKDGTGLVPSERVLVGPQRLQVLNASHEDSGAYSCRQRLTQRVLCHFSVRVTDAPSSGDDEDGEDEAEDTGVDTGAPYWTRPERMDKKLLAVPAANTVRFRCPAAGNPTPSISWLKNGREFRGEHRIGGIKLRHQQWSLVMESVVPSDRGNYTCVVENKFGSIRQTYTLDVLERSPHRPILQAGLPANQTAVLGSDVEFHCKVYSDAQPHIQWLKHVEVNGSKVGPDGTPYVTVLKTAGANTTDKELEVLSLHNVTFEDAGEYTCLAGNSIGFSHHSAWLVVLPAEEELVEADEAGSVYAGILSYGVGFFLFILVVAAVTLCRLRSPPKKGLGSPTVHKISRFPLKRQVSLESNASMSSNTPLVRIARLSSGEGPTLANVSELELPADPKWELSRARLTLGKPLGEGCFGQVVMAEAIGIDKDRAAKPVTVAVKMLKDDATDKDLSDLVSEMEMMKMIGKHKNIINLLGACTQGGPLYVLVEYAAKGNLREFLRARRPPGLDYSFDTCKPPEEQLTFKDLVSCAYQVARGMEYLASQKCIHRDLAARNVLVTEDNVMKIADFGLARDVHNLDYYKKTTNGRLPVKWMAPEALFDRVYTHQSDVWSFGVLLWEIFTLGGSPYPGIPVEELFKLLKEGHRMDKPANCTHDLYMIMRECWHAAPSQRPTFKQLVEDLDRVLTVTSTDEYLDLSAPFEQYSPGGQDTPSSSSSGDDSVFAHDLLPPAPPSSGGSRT

[11] = Pharmacokinetic studies in mice (LC-MS/MS); assay type: in vivo, B6D2F1 mice; set-up: key to Brain level: brain drug concentration in μM, corrected for 0.8 mL/g water space; Plasma level: unit: uM; conditions: for Brain level / Plasma level: listed as PU-HZ151
Method: Blood and brain tissue were collected following euthanasia at the scheduled time points of 5, 30 min, 1, 4, and 8 h following iv dosing and of 30 min, 1, 4, and 8 h following po dosing. Brain samples were immediately flash frozen in liquid nitrogen following collection and stored at −80 °C until analysis. Blood samples were collected into an EDTA tube by heart puncture and centrifuged at 17,000×g for 5 min at 4 °C to separate the plasma and immediately frozen on dry ice and stored at −80 °C until analysis. […] This was homogenized, extracted with methylene chloride, and evaporated on a GeneVac. […] Drug concentration (μM) in the brain was then modified to account for an average water space of 0.8 mL g^−1.

[12] = tested on: CYP3A; test: Cytochrome P450 profiling, ketoconazole; assay type: in vitro ADME, human; conditions: for % PU-HZ151 remaining: Ketoconazole
Method: as §1

## CC(C)(C)CNCCn1c(Sc2cc3c(cc2I)OCO3)nc2c(N)ncnc21 [Compound 85]
[1]; 15 min
  % PU-HZ151 remaining: 62%
[1]; 30 min
  % PU-HZ151 remaining: 42.7%
[1]; 60 min
  % PU-HZ151 remaining: 25.6%
[1]; orphenadrine
  inhibition of PU-HZ151 metabolism: 10%
[2]; 15 min
  % PU-HZ151 remaining: 70.5%
[2]; 30 min
  % PU-HZ151 remaining: 54.1%
[2]; 60 min
  % PU-HZ151 remaining: 36.5%
[2]; sulfaphenazole
  inhibition of PU-HZ151 metabolism: 23%
[3]
  remaining binding at 10 µM: 99%
[4]
  remaining binding at 10 µM: 100%
[5]
  remaining binding at 10 µM: 100%
[6]
  remaining binding at 10 µM: 84%
[7]
  remaining binding at 10 µM: 100%
[8]
  remaining binding at 10 µM: 76%
[9]
  remaining binding at 10 µM: 100%
[10]
  remaining binding at 10 µM: 95%
[11]; time 5 min, individual animals
  Brain level: 15.4588 and 7.86 and 11.67
  Plasma level: 9.01 and 9.336 and 14.2069 and 3.61
[11]; time 0.5 h, individual animals
  Brain level: 4.224 and 4.34 and 4.57
  Plasma level: 1.67 and 1.018 and 1.136 and 1.35
[11]; time 1 h, individual animals
  Brain level: 2.2188 and 1.91 and 1.47
  Plasma level: 0.32 and 0.7228 and 0.6745 and 0.42
[11]; time 4 h, individual animals
  Brain level: 0.07412 and 0.06266 and 0.11 and 0.04
  Plasma level: 0.02 and 0.03223 and 0.03275 and 0.03
[11]; time 8 h, individual animals
  Brain level: 0.009121 and 0.03148 and 0.03 and 0.11
  Plasma level: 0.01 (2×) and 0 (2×)
[11]; i.v. 10 mg kg^−1
  brain exposure relative to PU-H71: approximately ten-fold higher
[11]; male, B6D2F1, mouse, brain and lung, iv, single i.v. 10 mg/kg
  Cmax: 10 to 15 µM
[11]; male, B6D2F1, mouse, brain, 10 mg kg^−1, oral administration, read-out: brain/plasma
  Kp: 1.6
[11]; male, B6D2F1, mouse, brain, intravenous, 10 mg kg^-1, Brain, time 5 min, individual animals, read-out: Brain level
  concentration at 5 min: 13.5 µM
[11]; male, B6D2F1, mouse, brain, intravenous, 10 mg kg^−1, Brain, time 0.5 h, individual animals, read-out: Brain level
  concentration at 0.5 h: 4.58 µM
[11]; male, B6D2F1, mouse, brain, intravenous, 10 mg kg^−1, Brain, time 1 h, individual animals, read-out: Brain level
  concentration at 1 h: 2060 nM
[11]; male, B6D2F1, mouse, brain, iv, 10 mg kg^−1, read-out: brain to plasma ratio
  Kp: 2.35
[11]; male, B6D2F1, mouse, brain, iv, i.v. 10 mg kg^−1, read-out: brain exposure, AUC
  AUC: 8.25 µM·h
[11]; male, B6D2F1, mouse, plasma, iv, i.v. 10 mg kg^−1, read-out: plasma exposure, AUC
  AUC: 3.52 µM·h
[11]; male, B6D2F1, mouse, plasma, oral, 10 mg kg^−1
  bioavailability: 68%
[12]; 15 min
  % PU-HZ151 remaining: 76.5%
[12]; 30 min
  % PU-HZ151 remaining: 63.5%
[12]; 60 min
  % PU-HZ151 remaining: 50.6%
[12]; ketoconazole
  inhibition of PU-HZ151 metabolism: 40%
